Assay [1] concerns Spodoptera frugiperda. Nature of the assay: Spodoptera frugiperda spray test. The assay is classed as in vivo. Particulars: after 7 days.
Assay [2] deals with Phaedon cochleariae. Briefly: Phaedon cochleariae spray test. The note with it: 100 g/ha; after 7 days.
The test system of assay [3] is Tetranychus urticae. Nature of the assay: Tetranychus urticae spray test, OP-resistant (bean leaf discs). Format: in vivo. The note with it: 100 g/ha; after 6 days. Here is the method:
After 6 days, the efficacy in % is determined.

`O=S(=O)(NCc1cc(-c2cnn(-c3c(Cl)cc(C(F)(C(F)(F)F)C(F)(F)F)cc3Cl)c2)ccc1Cl)c1ccccc1` [Ic-05]: the efficacy in assay [1] (100 g/ha) and in assay [2] was 100% each time.
In the case of `O=C(NCc1cc(-c2cnn(-c3c(Cl)cc(C(F)(C(F)(F)F)C(F)(F)F)cc3Cl)c2)ccc1Cl)C(F)F` [Ia-119], the efficacy in assay [3], in assay [1] (100 g/ha) and in assay [2] was 100% in each case.
Take `CCC(=O)NCc1cc(-c2cnn(-c3c(Cl)cc(C(F)(C(F)(F)F)C(F)(F)F)cc3Cl)c2)c(F)cc1Cl` [Ia-111]: the efficacy in assay [3], in assay [1] (100 g/ha) and in assay [2] was 100% in each case.
`CCC(=O)NCc1cc(-c2cn(-c3c(Cl)cc(C(F)(C(F)(F)F)C(F)(F)F)cc3Cl)cn2)ccc1F` [I-T2-03] returned an efficacy in assay [2] of 100%.
As for `CCC(=O)N(C)Cc1cc(-c2cnn(-c3c(Cl)cc(C(F)(C(F)(F)F)C(F)(F)F)cc3OC(F)(F)F)c2)ccc1Cl` [Ia-87], the efficacy in assay [3], in assay [1] (100 g/ha) and in assay [2] was 100% in each case.
For `CCCN(Cc1cc(-c2cnn(-c3c(Cl)cc(C(F)(C(F)(F)F)C(F)(F)F)cc3Cl)c2)ccc1Cl)C(C)=O` [Ia-112], the efficacy is on record as 90% in assay [3], 100% in assay [1] (100 g/ha) and 100% in assay [2].
For `CC(=O)N(C)Cc1cc(-c2cnn(-c3c(Cl)cc(C(F)(C(F)(F)F)C(F)(F)F)cc3Br)c2)ccc1Cl` [Ia-99], the efficacy in assay [3], in assay [1] (100 g/ha) and in assay [2] was 100% each time.
As for `CC(=O)N(C)Cc1cc(-c2cnn(-c3c(F)cc(C(F)(C(F)(F)F)C(F)(F)F)cc3Br)c2)ccc1Cl` [Ia-100], the efficacy in assay [3], in assay [1] (100 g/ha) and in assay [2] was 100% throughout.
In the case of `CC(=O)NCc1cc(-c2cnn(-c3c(Cl)cc(C(F)(C(F)(F)F)C(F)(F)F)cc3Cl)c2)ccc1Br` [Ia-164], the efficacy in assay [3], in assay [1] (100 g/ha) and in assay [2] was 100% each time.
For `CN(Cc1cc(-c2cnn(-c3c(Cl)cc(C(F)(C(F)(F)F)C(F)(F)F)cc3Cl)c2)ccc1Cl)C(=O)C1CC1` [Ia-24], the efficacy in assay [1] (100 g/ha) and in assay [2] was 100% in each case.
Regarding `CCC(=O)NCc1cc(-c2cnn(-c3c(Cl)cc(C(F)(C(F)(F)F)C(F)(F)F)cc3C#N)c2)ccc1Cl` [Ia-114], the efficacy in assay [1] (100 g/ha) and in assay [2] was 100% each time.
Consider `CC(=O)NCc1cc(-c2cnn(-c3c(F)cc(C(F)(C(F)(F)F)C(F)(F)F)cc3Br)c2)ccc1Cl` [Ia-92], for which the efficacy in assay [3], in assay [1] (100 g/ha) and in assay [2] was 100% throughout.
Regarding `CCC(=O)NCc1cc(-c2cnn(-c3c(Cl)cc(C(F)(C(F)(F)F)C(F)(F)F)cc3Cl)c2)ccc1C` [Ia-81], the efficacy in assay [3] and in assay [1] (100 g/ha) was 100% in each case.
Regarding `CC(=O)N(C)Cc1cc(-c2cnn(-c3c(Cl)cc(C(F)(C(F)(F)F)C(F)(F)F)cc3Cl)c2)ccc1Br` [Ia-165], the values for the efficacy in assay [3], in assay [1] (100 g/ha) and in assay [2] were 90%, 100% and 100%, respectively.
Turning to `C[S+]([O-])c1cc(C(F)(C(F)(F)F)C(F)(F)F)cc(Cl)c1-n1cc(-c2ccc(F)c(CNC(=O)C3CC3)c2)cn1` (stereo not shown) [Ia-43], the results for the efficacy in assay [3], in assay [1] (20 g/ha) and in assay [2] were 90%, 83% and 100%, respectively.
Turning to `CCC(=O)NCc1cc(-c2cnn(-c3c(Cl)cc(C(F)(C(F)(F)F)C(F)(F)F)cc3OC(F)F)c2)cnc1Cl` [Ia-160], the efficacy in assay [3], in assay [1] (100 g/ha) and in assay [2] was 100% throughout.
Take `CC(=O)NCc1cc(-c2cnn(-c3c(Cl)cc(C4(C(F)(F)F)CC4)cc3Cl)c2)ccc1F` [Ia-124]: in assay [2], the efficacy amounted to 100%.
Still for that read-out and setting: the same measure for `CC(=O)NCc1cc(-c2cn(-c3c(Cl)cc(C(F)(C(F)(F)F)C(F)(F)F)cc3Cl)cn2)ccc1F` [I-T2-01]: 100%.
`CCC(=O)NC(C)c1cc(-c2cnn(-c3c(Cl)cc(C(F)(C(F)(F)F)C(F)(F)F)cc3Cl)c2)ccc1F` (stereo not shown) [Ia-50] registered an efficacy in assay [1] (100 g/ha) of 100%.
As to `CC(=O)N(C)Cc1cc(-c2cnn(-c3c(Cl)cc(C(F)(C(F)(F)F)C(F)(F)F)cc3OC(F)(F)F)c2)ccc1Cl` [Ia-85], the efficacy in assay [3], in assay [1] (100 g/ha) and in assay [2] was 100% in each case.
Take `Cc1cc(C(F)(C(F)(F)F)C(F)(F)F)cc(Cl)c1-n1cc(-c2cccc(CNC(=O)C3CC3)c2)cn1` [Ia-70]: the efficacy in assay [2] was found to be 100%.
Turning to `CCC(=O)NCc1cc(-c2cnn(-c3c(Cl)cc(C(F)(C(F)(F)F)C(F)(F)F)cc3Cl)c2)ccc1Br` [Ia-166], the efficacy in assay [3], in assay [1] (100 g/ha) and in assay [2] was 100% each time.
With `CCC(=O)NCc1cc(-c2cnn(-c3c(F)cc(C(F)(C(F)(F)F)C(F)(F)F)cc3Br)c2)ccc1Cl` [Ia-94], the efficacy in assay [1] (100 g/ha) and in assay [2] was 100% throughout.
In assay [2], `CC(=O)NCc1cccc(-c2cnn(-c3c(Cl)cc(C(F)(C(F)(F)F)C(F)(F)F)cc3Cl)c2)c1F` [Ia-153] displayed an efficacy of 100%.
For the compound `CCC(=O)NCc1cccc(-c2cnn(-c3c(Cl)cc(C(F)(C(F)(F)F)C(F)(F)F)cc3C#N)c2)c1` [Ia-97], the efficacy in assay [2] is on record as 100%.
On to `CCC(=O)NCc1cc(-c2cnn(-c3c(Cl)cc(C(F)(C(F)(F)F)C(F)(F)F)cc3Br)c2)ccc1Cl` [Ia-89], for which the efficacy amounted to 90% in assay [3], 100% in assay [1] (100 g/ha) and 100% in assay [2].
Regarding `CCC(=O)N(C)Cc1cc(-c2cnn(-c3c(Cl)cc(C(F)(C(F)(F)F)C(F)(F)F)cc3Cl)c2)ccc1C(F)(F)F` [Ia-78], the efficacy in assay [2] stood at 100%.
For the compound `CS(=O)(=O)c1cc(C(F)(C(F)(F)F)C(F)(F)F)cc(Cl)c1-n1cc(-c2ccc(F)c(CNC(=O)C3CC3)c2)cn1` [Ia-44], the efficacy in assay [3] and in assay [2] was 100% in each case.
`CC(=O)N(C)Cc1cc(-c2cnn(-c3c(Cl)cc(C(F)(C(F)(F)F)C(F)(F)F)cc3Cl)c2)c(F)cc1Cl` [Ia-110]: the efficacy in assay [1] (100 g/ha) and in assay [2] was 100% throughout.
As to `CC(=O)NCc1cc(-c2cnn(-c3c(Cl)cc(C(F)(C(F)(F)F)C(F)(F)F)cc3OC(F)(F)F)c2)ccc1F` [Ia-06], the efficacy in assay [1] (100 g/ha) and in assay [2] was 100% throughout.
In the case of `O=C(CC(F)(F)F)NCc1cccc(-c2cnn(-c3c(Cl)cc(C(F)(C(F)(F)F)C(F)(F)F)cc3Cl)c2)c1` [Ia-21], the efficacy in assay [1] (100 g/ha) and in assay [2] was 100% throughout.
For `CCC(=O)NCc1cc(-c2cnn(-c3c(Cl)cc(C4(C(F)(F)F)CC4)cc3Cl)c2)ccc1F` [Ia-123], the values for the efficacy in assay [1] (100 g/ha) and in assay [2] were 83% and 100%, respectively.
Regarding `CC(=S)N(C)Cc1cc(-c2cnn(-c3c(Cl)cc(C(F)(C(F)(F)F)C(F)(F)F)cc3Cl)c2)ccc1Cl` [Ia-163], the efficacy in assay [3] was 100%; in assay [1] (100 g/ha), 83%; in assay [2], 100%.
On to `CCC(=O)NCc1cc(-c2cn(-c3c(Cl)cc(C(F)(C(F)(F)F)C(F)(F)F)cc3Cl)nn2)ccc1Cl` [I-T7-02], for which the efficacy in assay [1] (100 g/ha) and in assay [2] was 100% each time.
With `CCC(=O)NCc1cc(-c2cnn(-c3c(Cl)cc(C(F)(C(F)(F)F)C(F)(F)F)cc3OC(F)(F)F)c2)ccc1Cl` [Ia-86], the efficacy in assay [1] (100 g/ha) and in assay [2] was 100% in each case.
On to `CCC(=O)NCc1cc(-c2cnn(-c3c(Cl)cc(C(F)(C(F)(F)F)C(F)(F)F)cc3C#N)c2)ccc1F` [Ia-103], for which the efficacy in assay [1] (100 g/ha) and in assay [2] was 100% each time.
In the case of `CC(=O)NC(C)c1cc(-c2cnn(-c3c(Cl)cc(C(F)(C(F)(F)F)C(F)(F)F)cc3Cl)c2)ccc1F` (stereo not shown) [Ia-49], the efficacy in assay [1] (100 g/ha) and in assay [2] was 100% throughout.
For `O=C(NCc1cc(-c2cn(-c3c(Cl)cc(C(F)(C(F)(F)F)C(F)(F)F)cc3Cl)nn2)ccc1Cl)C1CC1` [I-T7-03], the efficacy in assay [1] (100 g/ha) and in assay [2] was 100% in each case.
For `CC(C)(C)C(=O)NCc1cc(-c2cnn(-c3c(Cl)cc(C(F)(C(F)(F)F)C(F)(F)F)cc3C(F)F)c2)ccc1F` [Ia-62], the efficacy in assay [2] was 100%.
For the compound “N-[1-(2-chloro-5-{1-[2,6-dichloro-4-(1,1,1,2,3,3,3-heptafluoropropan-2-yl)phenyl]-1H-pyrazol-4-yl}phenyl)ethyl]propanamide [Ia-47]”, the efficacy is reported as 83% in assay [1] (100 g/ha) and 100% in assay [2].
Turning to `CC(=O)NCc1cccc(-c2cnn(-c3c(Cl)cc(C(F)(C(F)(F)F)C(F)(F)F)cc3Cl)c2)c1` [Ia-09], the efficacy came to 90% in assay [3], 100% in assay [1] (100 g/ha) and 100% in assay [2].
As for `CCC(=O)N(C)Cc1cc(-c2cnn(-c3c(Cl)cc(C(F)(C(F)(F)F)C(F)(F)F)cc3OC(F)(F)F)c2)ccc1F` [Ia-27], the efficacy in assay [3], in assay [1] (100 g/ha) and in assay [2] was 100% throughout.
Consider `CCC(=O)N(C)Cc1cc(-c2cnn(-c3c(Cl)cc(C(F)(C(F)(F)F)C(F)(F)F)cc3Cl)c2)ccc1Br` [Ia-167], for which the efficacy in assay [3], in assay [1] (100 g/ha) and in assay [2] was 100% each time.
Regarding `CCC(=O)NCc1cc(-c2cnn(-c3c(Cl)cc(C(F)(C(F)(F)F)C(F)(F)F)cc3C#N)c2)ccc1C` [Ia-101], the efficacy in assay [1] (100 g/ha) and in assay [2] was 100% throughout.
Consider `O=C(NCc1cc(-c2cnn(-c3c(Cl)cc(C(F)(C(F)(F)F)C(F)(F)F)cc3Cl)c2)ccc1Cl)C(F)(F)F` [Ia-120], for which the efficacy in assay [3], in assay [1] (100 g/ha) and in assay [2] was 100% in each case.
For the compound `CCN(Cc1cc(-c2cnn(-c3c(Cl)cc(C(F)(C(F)(F)F)C(F)(F)F)cc3Cl)c2)ccc1Cl)C(C)=O` [Ia-109], the efficacy in assay [3], in assay [1] (100 g/ha) and in assay [2] was 100% in each case.

(Values after patent US10357036B2, “Compounds for controlling arthropods” (priority 2015, dated 2019).)
